Results as given in US20140031217A1, “HERBICIDAL COMPOSITIONS COMPRISING 4-AMINO-3-CHLORO-5-FLUORO-6-(4-CHLORO-2-FLUORO-3-METHOXYPHENYL)PYRIDINE-2-CARBOXYLIC ACID OR A DERIVATIVE THEREOF AND AUXIN TRANSPORT INHIBITORS” (DOW AGROSCIENCES LLC, priority 2012, published 2014).

Assays:
LEFCH = assay: Postemergence foliar-applied greenhouse weed control, LEFCH; format: in vivo, Leptochloa chinensis (L.) Nees
Text: Seeds or nutlets of the desired test plant species were planted in a soil matrix prepared by mixing a loam or sandy loam soil (e.g., 28.6 percent silt, 18.8 percent clay, and 52.6 percent sand, with a pH of about 5.8 and an organic matter content of about 1.8 percent) and calcareous grit in an 80 to 20 ratio. The soil matrix was contained in plastic pots with a volume of 1 quart and a surface area of 83.6 square centimeters (cm^2). When required to ensure good germination and healthy plants, a fungicide treatment and/or other chemical or physical treatment was applied. The plants were grown for 8-22 days in a greenhouse with an approximate 14 h photoperiod which was maintained at about 29° C. during the day and 26° C. during the night. Nutrients (Peters Excel® 15-5-15 5-Ca 2-Mg and iron chelate) were applied in the irrigation solution as needed and water was added on a regular basis. Supplemental lighting was provided with overhead metal halide 1000-Watt lamps as necessary. The plants were employed for testing when they reached the first through fourth true leaf stage.
Treatments consisted of the acid or esters of 4-amino-3-chloro-5-fluoro-6-(4-chloro-2-fluoro-3-methoxy-phenyl) pyridine-2-carboxylic acid (Compound A), each formulated as an SC (suspension concentrate), and various herbicidal components alone and in combination. Forms of compound A were applied on an acid equivalent basis.
Other herbicidal components were applied on an active ingredient basis and included auxin transport inhibiting (ATI) herbicides chlorflurenol (technical material), chlorflurenol-methyl (technical material), diflufenzopyr (technical material), diflufenzopyr sodium (technical material), flurenol-methyl (technical material) and naptalam (technical material).
Treatment requirements were calculated based upon the rates being tested, the concentration of active ingredient or acid equivalent in the formulation, and a 12 mL application volume at a rate of 187 L/ha.
For treatments comprised of formulated and technical compounds, weighed amounts of the technical materials were placed individually in 25 mL glass vials and dissolved in a volume of 97:3 v/v acetone/DMSO to obtain 12× stock solutions, and measured amounts of the formulated compounds were placed individually in 25 mL glass vials and diluted in a volume of 1.5% (v/v) crop oil concentrate or water to obtain 12× stock solutions. […] Application solutions were prepared by adding an appropriate amount of each stock solution (e.g., 1 mL) and diluted to the appropriate final concentrations with the addition of an appropriate amount of an aqueous mixture of 1.5% (v/v) crop oil concentrate so that the final spray solutions contained 1.25% (v/v) crop oil concentrate. When required, additional water and/or 97:3 v/v acetone/DMSO was added to individual application solutions so that the final acetone and DMSO concentrations of the application solutions being compared were 8.1% and 0.25%, respectively.
All stock solutions and applications solutions were visually inspected for compound compatibility prior to application. Spray solutions were applied to the plant material with an overhead Mandel track sprayer equipped with an 8002E nozzle calibrated to deliver 187 L/ha over an application area of 0.503 m^2 at a spray height of 18 to 20 inches (46 to 50 cm) above average plant canopy height. Control plants were sprayed in the same manner with the solvent blank.
The treated plants and control plants were placed in a greenhouse as described above and watered by sub-irrigation to prevent wash-off of the test compounds. After approximately 3 weeks, the condition of the test plants as compared with that of the untreated plants was determined visually and scored on a scale of 0 to 100 percent where 0 corresponds to no injury or growth inhibition and 100 corresponds to complete kill. […]

SCPMA = assay: In-water applied (paddy) greenhouse weed control, SCPMA; format: in vivo
Protocol: Weed seeds or nutlets of the desired test plant species were planted in puddled soil (mud) prepared by mixing a shredded, non-sterilized mineral soil (50.5 percent silt, 25.5 percent clay, and 24 percent sand, with a pH of about 7.6 and an organic matter content of about 2.9 percent) and water at a 1:1 volumetric ratio. The prepared mud was dispensed in 365 mL aliquots into 16-ounce (oz.) non-perforated plastic pots with a surface area of 86.59 square centimeters (cm^2) leaving a headspace of 3 centimeters (cm) in each pot. Mud was allowed to dry overnight prior to planting or transplanting. Rice seeds were planted in Sun Gro MetroMix® 306 planting mixture, which typically has a pH of 6.0 to 6.8 and an organic matter content of about 30 percent, in plastic plug trays. Seedlings at the second or third leaf stage of growth were transplanted into 840 mL of mud contained in 32-oz. non-perforated plastic pots with a surface area of 86.59 cm^2 4 days prior to herbicide application. The paddy was created by filling the headspace of the pots with 2.5 to 3 cm of water. When required to ensure good germination and healthy plants, a fungicide treatment and/or other chemical or physical treatment was applied. The plants were grown for 4-22 days in a greenhouse with an approximate 14 h photoperiod which was maintained at about 29′C during the day and 26° C. during the night. Nutrients were added as Osmocote® (19:6:12, N:P:K+minor nutrients) at 2 g per 16-oz. pot and 4 g per 960-mL 32-oz. pot. Water was added on a regular basis to maintain the paddy flood, and supplemental lighting was provided with overhead metal halide 1000-Watt lamps as necessary. The plants were employed for testing when they reached the second or third true leaf stage.
Treatments consisted of the acid or esters of 4-amino-3-chloro-5-fluoro-6-(4-chloro-2-fluoro-3-methoxy-phenyl)pyridine-2-carboxylic acid (compound A) each formulated as an SC and various herbicidal components alone and in combination. Forms of compound A were applied on an acid equivalent basis.
Other herbicidal components were applied on an active ingredient basis and included auxin transport inhibiting (ATI) herbicides chlorflurenol-methyl (technical material), chlorflurenol (technical material), diflufenzopyr (technical material), dilfufenzopyr sodium (technical material), flurenol-methyl (technical material,) and naptalam (technical material).
Treatment requirements for each compound or herbicidal component were calculated based upon the rates being tested, the concentration of active ingredient or acid equivalent in the formulation, an application volume of 2 mL per component per pot, and an application area of 86.59 cm^2 per pot.
For formulated compounds, a measured amount was placed in an individual 100 or 200 mL glass vial and was dissolved in a volume of 1.25% (v/v) Agri-Dex® crop oil concentrate to obtain application solutions.
For technical grade compounds, a weighed amount was placed in an individual 100 to 200 mL glass vial and was dissolved in a volume of acetone to obtain concentrated stock solutions. […] The concentrated stock solutions obtained were diluted with an equivalent volume of an aqueous mixture containing 2.5% (v/v) crop oil concentrate so that the final application solutions contained 1.25% (v/v) crop oil concentrate.
Applications were made by injecting with a pipetter appropriate amounts of the application solutions, individually and sequentially, into the aqueous layer of the paddy. Control plants were treated in the same manner with the solvent blank. Applications were made so that all treated plant material received the same concentrations of acetone and crop oil concentrate.
The treated plants and control plants were placed in a greenhouse as described above and water was added as needed to maintain a paddy flood. […]

SMILES | Visual Weed Control (%) Obs (LEFCH; 20 DAA, 4.38 gae/ha) | Visual Weed Control (%) Obs (LEFCH; 20 DAA, 8.75 gae/ha) | Visual Weed Control (%) Obs (LEFCH; 20 DAA, 17.5 gae/ha) | Visual Weed Control (%) Obs (LEFCH; 21 DAA, 8.75 gae/ha) | Visual Weed Control (%) Obs (LEFCH; 21 DAA, 17.5 gae/ha) | Visual Weed Control (%) Obs (SCPMA; 20 DAA, 8.75 gae/ha) | Visual Weed Control (%) Obs (SCPMA; 20 DAA, 17.5 gae/ha) | Visual Weed Control (%) Obs (SCPMA; 20 DAA, 35 gae/ha) | Visual Weed Control (%) Obs (SCPMA; 22 DAA, 8.75 gae/ha) | Visual Weed Control (%) Obs (SCPMA; 22 DAA, 17.5 gae/ha) | Visual Weed Control (%) Obs (SCPMA; 22 DAA, 35 gae/ha) | Visual Weed Control (%) Obs (LEFCH; 21 DAA, 4.38 gae/ha) | Visual Weed Control (%) Obs (LEFCH; 22 DAA, 32 gae/ha) | Visual Weed Control (%) Obs (SCPMA; 20 DAA, 4.38 gae/ha)
COc1c(Cl)ccc(-c2nc(C(=O)O)c(Cl)c(N)c2F)c1F [Compound A Acid, 4-amino-3-chloro-6-(4-chloro-2-fluoro-3-methoxyphenyl)-5-fluoropyridine-2-carboxylic acid] | 0% | 30% | 30% | 30% | 30% | 0% | 0% | 30% | 0% | 0% | 0% | – | – | –
COc1c(Cl)ccc(-c2nc(C(=O)OCc3ccccc3)c(Cl)c(N)c2F)c1F [Compound A Benzyl Ester] | 15% | 30% | – | 40% | 50% | 0% | 0% | – | 0% | 0% | – | 15% | 40% | 0%
